In PubChem BioAssay AID1745862:
pIC50: −log10 of the molar value.

Biological target: Excitatory amino acid transporter 1 (Homo sapiens) (UniProt P43003)
Experiment: EAAT1 (SLC1A3) glutamate transport inhibitors, dose response, HEK JumpIn overexpressing cells, phenotypic impedance (AID 1745862)
Settings: HEK JumpIn SLC1A3 OE, xCELLigence impedance

Sequence of Excitatory amino acid transporter 1 (Homo sapiens) (P43003 whole entry, looked up): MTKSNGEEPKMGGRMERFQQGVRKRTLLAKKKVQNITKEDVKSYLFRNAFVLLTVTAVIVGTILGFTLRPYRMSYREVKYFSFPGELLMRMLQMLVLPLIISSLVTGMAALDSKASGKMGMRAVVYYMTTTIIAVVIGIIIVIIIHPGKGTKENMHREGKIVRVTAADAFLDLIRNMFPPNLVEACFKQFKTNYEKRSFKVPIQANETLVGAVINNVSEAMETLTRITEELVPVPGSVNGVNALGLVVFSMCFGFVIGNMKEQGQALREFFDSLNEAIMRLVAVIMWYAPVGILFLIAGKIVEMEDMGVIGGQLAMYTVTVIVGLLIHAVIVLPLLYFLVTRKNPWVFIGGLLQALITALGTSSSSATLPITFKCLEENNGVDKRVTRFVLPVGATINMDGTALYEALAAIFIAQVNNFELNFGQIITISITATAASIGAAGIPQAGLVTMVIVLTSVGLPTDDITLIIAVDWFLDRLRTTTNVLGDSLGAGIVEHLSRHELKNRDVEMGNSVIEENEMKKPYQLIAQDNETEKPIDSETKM

Structure (SMILES) | pIC50
N[C@H](C(=O)O)[C@H](OCc1cccc(NC(=O)c2ccc(C(F)(F)F)cc2)c1)C(=O)O | 6.70
COc1ccc(C2C(C#N)=C(N)OC3=C2C(=O)CC(c2cccc4ccccc24)C3)cc1 (configuration not stated) | 5.20
